Reference: patent US20040167330A1, “Novel chelating agents and conjugates thereof, their synthesis and use as diagnois and therapeutic agents” (priority 2004, published 2004)
“Also recorded” adds a separate entry of the source.

What was measured:
[1] = Elimination (cumulative excretion of radioactivity) of ^88Y-DO3A-P^BnNH2 complex; type: in vivo; details: Wistar SPF rats
Experimental: 2. Determination of elimination (mode and rate) of ^88Y-DO3A-P^BnNH2 complex from the organism
2. Mode and rate of elimination of ^88Y-DO3A-P^BnNH2 complex from the organism as determined by cumulative excretion of radioactivity in intervals of 0-2 h and 0-24 h respectively after intravenous injection of ^88Y-DO3A-P^BnNH2 complex into the vena saphena of Wistar SPF rats are summarized in Table 4.

human plasma proteins = assay: In vitro binding to human plasma proteins (equilibration dialysis or ultrafiltration); type: in vitro ADME; details: 37° C.
Experimental: 3. Determination of the in vitro binding capacity of ^88Y-DO3A-P^BnNH2 complex to human plasma proteins
3. Binding of the 88Y-DO3A-P^BnNH2 complex to human plasma proteins was evaluated at 37° C. using equilibration dialysis or ultrafiltration. 10.2±2.3% or 3.7±3.2% were bound to plasma proteins, respectively. Pharmacokinetically, reversible binding is of no importance.

[2] = Stability of complex in human plasma; type: in vitro ADME; details: for High molecular weight form / Low molecular weight form: human plasma, 37° C.
Experimental: 4. Determination of the stability of 88Y-DO3A-P^BnNH2 complex in human plasma
4. Stability of the ^88Y-DO3A-P^BnNH2 complex was determined in human plasma at 37° C. over 14 days using standardised in vitro conditions. […] Dissociation of the radionuclide ^88Y-yttrium from the ^88Y-DO3A-P^BnNH2 complex and binding to plasma proteins (predominantly to complex forming transferrin, a protein which prefers to form complexes with trivalent elements such as Fe^3+, Co^3+ but also Y^3+) was shown only for <2% of the total activity administered to human plasma.

[3] = Formation of ^90Y-yttrium complex, radiochemical yield by TLC/HPLC; type: physicochemical
Experimental: Purified DO3A-P^BnNH2 was dissolved in demineralised water at a concentration of 9×10^−5 mol/l. 0.1 ml of this solution were transferred into a small reaction vial (PE). 0.1 ml ^90Y-yttrium chloride (YCl3) in 0.1 M HCl and 0.1 ml ammonium acetate buffer, pH 5.7, were added. The reaction solutions were mixed well. pH values were measured continuously while preparing the solution. 24 identical solutions were prepared accordingly and stored at 25° C. and 37° C. respectively.
Samples were taken after 15 min, 30 min, 45 min, 60 min, 90 min and 120 min and analyzed by thin layer chromatography using silica gel (POLYGRAM SIL G/UV254) or, preferably, paper (Whatman No. 1) as solid phase. TLC was run using either solvent I: 0.1 N ammonium acetate solution or solvent II: 3% sodium chloride solution as developing solution. In parallel, samples (20 μl) were analyzed by gel filtration using HPLC. The HPLC-system comprised a gamma detector (Berthold LB 506) and a UV/VIS spectrometer (Waters 486) installed in two flow through cells, respectively.
Temperature- and time-dependent studies have shown a very short reaction time for the complex formation of a ^90Y-Yttrium-DO3A-complex.
Furthermore, the effect of pH and ligand concentration on radiochemical yield was evaluated. Table 5 summarizes the results relating to the variation of pH between pH 2.0 and pH 8.9 while maintaining a constant ratio of DO3A-P^BnNH2 and Y of 3:1 and a reaction time of 60 min at 25° C. Accordingly, best labeling results are achieved at pH values of 4.9-8.0. Table 6 summarizes the results relating to the variation of the ligand concentration DO3A-P^BnNH2: Y between 1:1 up to 7:1 while maintaining a constant pH range (pH 5.2) and reaction time of 60 min at 25° C.

[4] = as above; type: physicochemical; details: reaction time 0 min, [Y] = 1,2 · 10^−3 mol/l, ratio of ligand: Y = 1:1, pH = 5.5
[5] = Relaxation measurements of gadolinium(III) complex solutions; type: physicochemical; details: gadolinium(III) complex in solution; at 10 MHz
Experimental: Solution was stirred for 1 h at room temperature and pH was set to approx. pH 7 by careful addition of solid KOH. Thus prepared solution as well as other solutions of different concentration which were prepared by a similar approach (all containing known amount of water and gadolinium(III)) were used for relaxation measurements. The solutions gave relaxivity 7.86 mmol^−1 s^−1 (at 10 MHz).
Solution of gadolinium(III) complex of compound 1 for relaxation measurements were prepared similarly to Example 51. The solutions gave relaxivity 7.54 mmol-1 s^−1 (at 10 MHz). Exchange half-life of coordinated water molecule 70 ns was determined (from temperature dependence of ^17O NMR parameters).

Molecule: Nc1ccc(CP(=O)([O-])CN2CCN(CC(=O)[O-])CCN(CC(=O)[O-])CCN(CC(=O)[O-])CC2)cc1.[88Y+3] [^88Y-DO3A-P^BnNH2 complex]
- Cumulative excretion of radioactivity ([1]; Faeces, interval 0-24 h after intravenous injection): 3.6 ± 2.8%
- Cumulative excretion of radioactivity ([1]; Urine, interval 0-2 h after intravenous injection): 79.4 ± 5.2%
- Cumulative excretion of radioactivity ([1]; Urine, interval 0-24 h after intravenous injection): 84.3 ± 5.0%
- bound to plasma proteins (human plasma proteins; equilibration dialysis): 10.2±2.3%
- bound to plasma proteins (human plasma proteins; ultrafiltration): 3.7±3.2%
- Dissociation of the radionuclide ^88Y-yttrium from the complex and binding to plasma proteins ([2]; human plasma at 37° C. over 14 days): < 2 % of the total activity administered to human plasma
- Stability of the complex in human plasma ([2]; human plasma at 37° C. over 14 days, standardised in vitro conditions): highly stable; also recorded: high stability
- High molecular weight form ([2]; Day 0, Experiment No. 1): 0.28%
- Low molecular weight form ([2]; Day 0, Experiment No. 1): 99.72%
- High molecular weight form ([2]; Day 0, Experiment No. 2): 0.10%
- Low molecular weight form ([2]; Day 0, Experiment No. 2): 99.90%
- High molecular weight form ([2]; Day 3, Experiment No. 1): 0.75%
- Low molecular weight form ([2]; Day 3, Experiment No. 1): 99.25%
- High molecular weight form ([2]; Day 3, Experiment No. 2): 0.56%
- Low molecular weight form ([2]; Day 3, Experiment No. 2): 99.44%
- High molecular weight form ([2]; Day 5, Experiment No. 1): 0.72%
- Low molecular weight form ([2]; Day 5, Experiment No. 1): 99.28%
- High molecular weight form ([2]; Day 5, Experiment No. 2): 0.91%
- Low molecular weight form ([2]; Day 5, Experiment No. 2): 99.09%
- High molecular weight form ([2]; Day 7, Experiment No. 1): 0.79%
- Low molecular weight form ([2]; Day 7, Experiment No. 1): 99.21%
- High molecular weight form ([2]; Day 7, Experiment No. 2): 0.73%
- Low molecular weight form ([2]; Day 7, Experiment No. 2): 99.27%
- High molecular weight form ([2]; Day 10, Experiment No. 1): 0.91%
- Low molecular weight form ([2]; Day 10, Experiment No. 1): 99.09%
- High molecular weight form ([2]; Day 10, Experiment No. 2): 1.08%
- Low molecular weight form ([2]; Day 10, Experiment No. 2): 98.92%
- High molecular weight form ([2]; Day 12, Experiment No. 1): 1.17%
- Low molecular weight form ([2]; Day 12, Experiment No. 1): 98.83%
- High molecular weight form ([2]; Day 12, Experiment No. 2): 1.35%
- Low molecular weight form ([2]; Day 12, Experiment No. 2): 98.65%
- High molecular weight form ([2]; Day 14, Experiment No. 1): 1.68%
- Low molecular weight form ([2]; Day 14, Experiment No. 1): 98.32%
- High molecular weight form ([2]; Day 14, Experiment No. 2): 1.80%
- Low molecular weight form ([2]; Day 14, Experiment No. 2): 98.20%

Molecule: Nc1ccc(CP(=O)([O-])CN2CCN(CC(=O)[O-])CCN(CC(=O)[O-])CCN(CC(=O)[O-])CC2)cc1.[90Y+3] [^90Y-DO3A-P^BnNH2-complex]
- radiochemical yield ([3]; pH 2.0, [Y] = 1.5 · 10^−5 mol/l, ratio of ligand: Y = 3:1, reaction time 60 min, 25° C.): 12%
- radiochemical yield ([3]; pH 3.0, [Y] = 1.5 · 10^−5 mol/l, ratio of ligand: Y = 3:1, reaction time 60 min, 25° C.): 54%
- radiochemical yield ([3]; pH 3.9, [Y] = 1.5 · 10^−5 mol/l, ratio of ligand: Y = 3:1, reaction time 60 min, 25° C.): 77%
- radiochemical yield ([3]; pH 4.4, [Y] = 1.5 · 10^−5 mol/l, ratio of ligand: Y = 3:1, reaction time 60 min, 25° C.): 93%
- radiochemical yield ([3]; pH 4.9, [Y] = 1.5 · 10^−5 mol/l, ratio of ligand: Y = 3:1, reaction time 60 min, 25° C.): 97%
- radiochemical yield ([3]; pH 5.6, [Y] = 1.5 · 10^−5 mol/l, ratio of ligand: Y = 3:1, reaction time 60 min, 25° C.): 95%
- radiochemical yield ([3]; pH 6.0, [Y] = 1.5 · 10^−5 mol/l, ratio of ligand: Y = 3:1, reaction time 60 min, 25° C.): 93%
- radiochemical yield ([3]; pH 6.2, [Y] = 1.5 · 10^−5 mol/l, ratio of ligand: Y = 3:1, reaction time 60 min, 25° C.): 97%
- radiochemical yield ([3]; pH 6.6, [Y] = 1.5 · 10^−5 mol/l, ratio of ligand: Y = 3:1, reaction time 60 min, 25° C.): 98%
- radiochemical yield ([3]; pH 6.8, [Y] = 1.5 · 10^−5 mol/l, ratio of ligand: Y = 3:1, reaction time 60 min, 25° C.): 98%
- radiochemical yield ([3]; pH 8.0, [Y] = 1.5 · 10^−5 mol/l, ratio of ligand: Y = 3:1, reaction time 60 min, 25° C.): 98%
- radiochemical yield ([3]; pH 8.9, [Y] = 1.5 · 10^−5 mol/l, ratio of ligand: Y = 3:1, reaction time 60 min, 25° C.): 91%
- radiochemical yield ([3]; ratio of ligand:Y 1:1, [Y] = 1.2 · 10^−3 mol/l, pH = 5.2, reaction time 60 min, 25° C.): 94%
- radiochemical yield ([3]; ratio of ligand:Y 2:1, [Y] = 1.2 · 10^−3 mol/l, pH = 5.2, reaction time 60 min, 25° C.): 97%
- radiochemical yield ([3]; ratio of ligand:Y 3:1, [Y] = 1.2 · 10^−3 mol/l, pH = 5.2, reaction time 60 min, 25° C.): 98%
- radiochemical yield ([3]; ratio of ligand:Y 4:1, [Y] = 1.2 · 10^−3 mol/l, pH = 5.2, reaction time 60 min, 25° C.): 99%
- radiochemical yield ([3]; ratio of ligand:Y 5:1, [Y] = 1.2 · 10^−3 mol/l, pH = 5.2, reaction time 60 min, 25° C.): 97%
- radiochemical yield ([3]; ratio of ligand:Y 6:1, [Y] = 1.2 · 10^−3 mol/l, pH = 5.2, reaction time 60 min, 25° C.): 99%
- radiochemical yield ([3]; ratio of ligand:Y 7:1, [Y] = 1.2 · 10^−3 mol/l, pH = 5.2, reaction time 60 min, 25° C.): 97%
- radiochemical yield ([3]; reaction time 15 min, 25° C., [Y] = 1,2 · 10^−3 mol/l, ratio of ligand: Y = 1:1, pH = 5.5): 97%
- radiochemical yield ([3]; reaction time 15 min, 37° C., [Y] = 1,2 · 10^−3 mol/l, ratio of ligand: Y = 1:1, pH = 5.5): 98%
- radiochemical yield ([3]; reaction time 30 min, 25° C., [Y] = 1,2 · 10^−3 mol/l, ratio of ligand: Y = 1:1, pH = 5.5): 97%
- radiochemical yield ([3]; reaction time 30 min, 37° C., [Y] = 1,2 · 10^−3 mol/l, ratio of ligand: Y = 1:1, pH = 5.5): 98%
- radiochemical yield ([3]; reaction time 45 min, 25° C., [Y] = 1,2 · 10^−3 mol/l, ratio of ligand: Y = 1:1, pH = 5.5): 97%
- radiochemical yield ([3]; reaction time 45 min, 37° C., [Y] = 1,2 · 10^−3 mol/l, ratio of ligand: Y = 1:1, pH = 5.5): 98%
- radiochemical yield ([3]; reaction time 60 min, 25° C., [Y] = 1,2 · 10^−3 mol/l, ratio of ligand: Y = 1:1, pH = 5.5): 97%
- radiochemical yield ([3]; reaction time 60 min, 37° C., [Y] = 1,2 · 10^−3 mol/l, ratio of ligand: Y = 1:1, pH = 5.5): 97%
- radiochemical yield ([3]; reaction time 90 min, 25° C., [Y] = 1,2 · 10^−3 mol/l, ratio of ligand: Y = 1:1, pH = 5.5): 98%
- radiochemical yield ([3]; reaction time 90 min, 37° C., [Y] = 1,2 · 10^−3 mol/l, ratio of ligand: Y = 1:1, pH = 5.5): 98%
- radiochemical yield ([3]; reaction time 120 min, 25° C., [Y] = 1,2 · 10^−3 mol/l, ratio of ligand: Y = 1:1, pH = 5.5): 98%
- radiochemical yield ([3]; reaction time 120 min, 37° C., [Y] = 1,2 · 10^−3 mol/l, ratio of ligand: Y = 1:1, pH = 5.5): 99%
- radiochemical yield ([4]; 25° C.): 88%
- radiochemical yield ([4]; 37° C.): 88%

Molecule: Gadolinium(III) Complex of DO3A-P [gadolinium(III) complex of compound 1]
- relaxivity [5]: 7.54 mmol⁻¹ s⁻¹
